Measurements taken from EP2815749A1, “Solid form of 4-amino-2-(2,6-dioxopiperidine-3-yl)isoindoline-1,3-dione having specified X-ray diffraction pattern” (IP Gesellschaft für Management mbH, priority 2013, dated 2014).
Blank lines part the entries; values can stand above or below the compound they belong to.

Experiments:
[1] = target: T1, AF508-CFTR (Homo sapiens, UniProt P13569, DEL508-508); experiment: Membrane potential optical assay for potentiation (FLIPR III); type: cell-based; details: relative efficacy
T1 construct: expressed in transfected cells
Source text: SINGLE CRYSTAL […] OF FORM T: Single crystal analysis was done on a crystal of Form T ({drug7r}) as described above. […] The driving force for the response is the creation of a chloride ion gradient in conjunction with channel activation by a single liquid addition step after the cells have previously been treated with compounds and subsequently loaded with a voltage sensing dye. Identification of Potentiator Compounds: To identify potentiators of AF508-CFTR, a double-addition HTS assay format was developed. […] The driving force for the response is a CI" ion gradient in conjunction with channel activation with forskolin in a single liquid addition step using a fluorescent plate reader such as FLIPR III after the cells have previously been treated with potentiator compounds (or DMSO vehicle control) and subsequently loaded with a redistribution dye. […] HBE grown on Costar® Snapwell™ cell culture inserts were mounted in an Using chamber (Physiologic Instruments, Inc., San Diego, CA), and the transepithelial resistance and short-circuit current in the presence of a basolateral to apical CI" gradient (Isc) were measured using a voltage-clamp system (Department of Bioengineering, University of Iowa, IA). […]

[2] = Polymorph screening: crash cooling; type: physicochemical
Procedure: (§1) Polymorph screening: A polymorph screen was conducted in the methylethyl ketone (MEK)/ water solvent systems, as well as in the acetonitrile (ACN), ACN/water and isopropyl acetate solvent systems. Polymorph screening techniques included crash cooling, solvent evaporation, antisolvent addition, and slurry experiments. Slurry experiments were performed on an IKA RCT hot plate with magnetic stirring set to 710 rpm. The temperature was controlled with an IKA ETS-D5 thermocouple. Solvent volumes were measured and transferred with Gibson Pipetteman volumetric pipettes. New forms that were identified as solvates were subjected to desolvation under two potential conditions: (1) drying in a vacuum oven at 40°C and (2) sitting undisturbed under ambient conditions in a fume hood. Physical characterization of all forms proceeded by X-ray powder diffraction (XRPD) and thermogravimetric analysis (TGA).
Experiment 1: Crash Cooling: A saturated solution of Compound (VII), Form XX was made by preparing 1 mL slurries using acetonitrile (ACN), ACN- water (75:25), methylethyl ketone (MEK), or MEK-water (99:1, 90:10, or 80:20) in vials. After 24 hours in capped HPLC vials, the slurries were then filtered to remove residual solids. Approximately 2 additional milligrams of Compound (VII) was added to each vial containing a saturated solution. Next, the vials were heated to 70°C with stirring until all of the material was completely dissolved. Immediately after, the samples were submerged into an ice bath. The product, which precipitated as a white powder within 1 minute, was isolated by filtration and analyzed by XRPD and TGA.

[3] = Polymorph screening: antisolvent addition; type: physicochemical; details: form obtained
Procedure: as §1
Experiment 3: Antisolvent Addition: A saturated solution of Compound (VII), Form XX was made by slurrying either in 5 mL of solvent in the ACN, IP Ac, and MEK solvent systems, 2 mL total solvent for IP Ac/water, or 1 mL total solvent for the MEK/water solvent systems. After 24 hours, the residual solids were removed by filtration 20 mL of antisolvent was then quickly added to the saturated solutions to induce precipitation. Hexane was used as the antisolvent in the MEK and IP Ac solvent systems, and MTBE was used as the antisolvent in the ACN solvent systems, as a consequence of the immiscibility between ACN and hexane. The product precipitated as a white powder and the form was analyzed by XRPD and TGA. Table 9.

[4] = Polymorph screening: solvent evaporation; type: physicochemical; details: form obtained
Procedure: as §1
A saturated solution was made by slurrying Compound (VII), Form XX in 5 mL of solvent (ACN, isopropyl acetate (IP Ac), or MEK) or 1 mL of solvent for the MEK/Water solvent system. After 24 hours, the residual solids were removed by filtration. The saturated solutions were then subjected to rapid solvent evaporation by blowing nitrogen (N2) gas over the samples with a Pierce Model 18780 Reacti-Vap evaporating unit for four hours. The product precipitated as a white powder and the form was analyzed by XRPD and TGA.

[5] = Stability of pomalidomide Form A; type: physicochemical
Procedure: (§2) Hygroscopicity: Dynamic vapor sorption (DVS) analysis was carried out for two preparations of Form A using Surface Measurement Systems DVS. Representative DVS isotherm plots are presented in Figure 23 of WO2013/126326 and Figure 24 of WO2013/126326. In one study, the moisture uptake was less than about 0.14 % (wv'w) up to 95% relative humidity, indicative that pomalidomide Form A is not hygroscopic. […] At the end of desorption, the sample lost all of the weight it gained during the process of moisture sorption. […] The X-ray powder diffractograms are shown in Figure 25 and Figure 26 of WO2013/126326. […] The physical properties of the exposed form A were unchanged as compared to at the start of the study. Form A also appeared to be stable in acetone, acetonitrile, ethanol, ethyl acetate, methyl ethyl ketone, THF, toluene, ethanoi-water (1 : 1) or water at 40°C for at least 4 weeks. Compression Test: A compression test for Form A was carried out by applying 2000-psi pressure to the sample for 1 minute and then analyzing the sample by XRPD. […] Particle Size Distribution: In some embodiments, Form A was prepared as a white, irregular plate crystalline with a particle size D90 < 12 ? . Particle size distribution was determined for various lots of pomalidomide. Table 15: Particle Size Data for Pomalidomide Lots

[6] = Hygroscopicity of pomalidomide Form A (DVS); type: physicochemical
Procedure: Pomalidomide Polymorph Preparations: A weighed sample of pomalidomide (about 100 mg) was treated with 2 mL of a test solvent. The solvents used were either reagent or HPLC grade. The resulting mixture was agitated for at least 24 hours at 25°C. When all of the solids were dissolved by visual inspection, the estimated solubilities were calculated. The solubility was estimated from these experiments based on the total volume of solvent used to give a solution. The actual solubility may be greater than those calculated due to the use of a large amount of solvent or to a slow rate of dissolution. […] A known volume of filtrate was evaporated to dryness and the weight of the residue was measured. Equilibration and evaporation experiments were carried out by adding an excess of pomalidomide to 4 mL of a test solvent. The resulting mixture was agitated for at least 24 hours at 25°C and 50°C separately. […] All of the samples generated as described in the polymorph preparation study were analyzed by XRPD. […] Diffracted radiation was detected by peitier-cooled Si(Li) solid state detector. […] Approximately 2-5 mg of sample was placed into a DSC pan and the weight was accurately recorded. […] Hygroscopicity was determined on a Surface Measurement Systems DVS. Typically a sample size of 10-50 mg was loaded into the DVS instrument sample pan and the sample was analyzed on a DVS automated sorption analyzer at 25°C. […]

[7] = Compression test of pomalidomide Form A; type: physicochemical; details: 2000-psi pressure for 1 minute
Procedure: as §2

[8] = Solvent System Acetonitrile/H2O

T1 sequence (P13569 with tags, fused parts or gaps DEL508-508): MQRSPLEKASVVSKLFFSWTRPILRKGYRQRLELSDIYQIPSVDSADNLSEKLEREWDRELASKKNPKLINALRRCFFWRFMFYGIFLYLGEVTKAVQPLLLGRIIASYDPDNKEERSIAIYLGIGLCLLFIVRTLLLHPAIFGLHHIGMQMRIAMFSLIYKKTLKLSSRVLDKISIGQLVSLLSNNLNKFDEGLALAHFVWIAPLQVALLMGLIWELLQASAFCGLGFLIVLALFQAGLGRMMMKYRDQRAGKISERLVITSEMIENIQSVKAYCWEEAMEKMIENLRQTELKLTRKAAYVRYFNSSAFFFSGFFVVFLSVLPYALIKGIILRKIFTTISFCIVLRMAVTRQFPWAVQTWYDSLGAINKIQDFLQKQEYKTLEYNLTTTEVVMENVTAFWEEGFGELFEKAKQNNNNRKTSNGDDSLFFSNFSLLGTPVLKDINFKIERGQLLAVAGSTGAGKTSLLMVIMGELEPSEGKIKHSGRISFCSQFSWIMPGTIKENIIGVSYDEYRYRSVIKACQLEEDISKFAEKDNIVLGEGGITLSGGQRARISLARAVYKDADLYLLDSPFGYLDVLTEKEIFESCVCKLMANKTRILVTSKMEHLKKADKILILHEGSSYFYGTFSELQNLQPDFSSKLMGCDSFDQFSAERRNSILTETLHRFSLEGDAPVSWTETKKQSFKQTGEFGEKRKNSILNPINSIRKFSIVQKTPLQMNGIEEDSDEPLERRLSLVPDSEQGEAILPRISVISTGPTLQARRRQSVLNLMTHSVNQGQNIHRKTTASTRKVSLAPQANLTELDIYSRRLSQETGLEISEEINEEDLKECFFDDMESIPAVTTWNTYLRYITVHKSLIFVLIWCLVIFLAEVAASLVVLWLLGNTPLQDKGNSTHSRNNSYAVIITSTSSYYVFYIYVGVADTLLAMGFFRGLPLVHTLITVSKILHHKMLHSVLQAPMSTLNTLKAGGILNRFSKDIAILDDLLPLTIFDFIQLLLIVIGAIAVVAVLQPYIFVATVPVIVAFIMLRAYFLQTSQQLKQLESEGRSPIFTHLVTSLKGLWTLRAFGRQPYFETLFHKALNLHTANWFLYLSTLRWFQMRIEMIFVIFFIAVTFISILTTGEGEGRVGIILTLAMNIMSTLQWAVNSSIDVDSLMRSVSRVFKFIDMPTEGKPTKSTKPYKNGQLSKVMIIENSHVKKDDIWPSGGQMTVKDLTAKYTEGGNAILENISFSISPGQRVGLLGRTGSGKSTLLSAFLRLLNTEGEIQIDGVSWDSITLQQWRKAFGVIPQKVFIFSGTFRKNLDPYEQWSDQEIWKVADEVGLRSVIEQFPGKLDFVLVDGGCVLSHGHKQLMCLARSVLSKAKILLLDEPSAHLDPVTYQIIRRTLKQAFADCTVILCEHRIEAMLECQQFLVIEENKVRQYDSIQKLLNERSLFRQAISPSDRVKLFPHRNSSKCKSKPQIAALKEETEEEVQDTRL

% Activity [1]: ++ ("++" means between 25% to 100%)
Solvate Polymorph ([2]; Solvent System Acetonitrile): Form D
Solvate Polymorph [2, 8]: Form D
Solvate Polymorph ([2]; Solvent System MEK): Form E
Solvate Polymorph ([2]; Solvent System MEK/H2O (80:20)): Form E
Solvate Polymorph ([2]; Solvent System MEK/H2O (90:10)): Form E
Solvate Polymorph ([2]; Solvent System MEK/H2O (99:1)): Form E
Solvate Polymorph ([2]; Solvent System Water): not soluble
Antisolvent Addition ([3]; Solvent System IPAc/H2O): Form T
Antisolvent Addition ([3]; Solvent System MEK): Form K
Antisolvent Addition ([3]; Solvent System MEK/H2O (80:20)): Form K
Antisolvent Addition ([3]; Solvent System MEK/H2O (90:10)): Form K
Antisolvent Addition ([3]; Solvent System MEK/H2O (99:1)): Form K
Antisolvent Addition ([3]; Solvent System Water): not soluble
Solvent Evaporation [4, 8]: Form F
Solvent Evaporation ([4]; Solvent System IPAc): Form G Semi-crystalline
Solvent Evaporation ([4]; Solvent System IPAc/H2O): Form H
Solvent Evaporation ([4]; Solvent System MEK): Form I
Solvent Evaporation ([4]; Solvent System MEK/H2O (80:20)): Form E
Solvent Evaporation ([4]; Solvent System MEK/H2O (90:10)): Form E
Solvent Evaporation ([4]; Solvent System MEK/H2O (99:1)): Form J
Solvent Evaporation ([4]; Solvent System Water): not soluble
SMILES: CC(C)(C)c1cc(C(C)(C)C)c(NC(=O)c2c[nH]c3ccccc3c2=O)cc1O [Compound (VII), N-[2,4-bis(1,1-dimethylethyl)-5-hydroxyphenyl]-1,4-dihydro-4-oxoquinoline-3-carboxamide]

SMILES: Nc1cccc2c1C(=O)N(C1CCC(=O)NC1=O)C2=O (stereo not drawn) [pomalidomide Form A, 4-amino-2-(2,6-dioxopiperidine-3-yl)isoindoline-1,3-dione]
physical properties after exposure ([5]; 40°C/75% RH environment for four weeks): unchanged
time stable in solvent ([5]; acetone, acetonitrile, ethanol, ethyl acetate, methyl ethyl ketone, THF, toluene, ethanol-water (1:1) or water at 40°C): at least 4 weeks
mass change over the dry mass ([6]; relative humidity increased from 0 to 95%, another study): less than 0.11%
moisture uptake ([6]; up to 95% relative humidity, one study): less than 0.14 % (wv'w)
XRPD pattern after compression [7]: unchanged
